# Patent US9079974B2, “GH-RH analogs with potent agonistic effects” (The University of Miami, priority 2011, dated 2015)
# pIC50: −log10 of the molar value. Entries after “also recorded” stand apart in the source; their conditions may differ. Square brackets hold non-standard residues; d marks the D form. Peptide text beside a SMILES is read from it. * marks the point of attachment. Phe(F5) = N[C@@H](Cc1c(F)c(F)c(F)c(F)c1F)C(=O)O; Desaminotyrosyl = O=C(CCc1ccc(O)cc1)*; NMeY = CN[C@@H](Cc1ccc(O)cc1)C(=O)O; Agmatine = N=C(N)NCCCCN*; Nle = CCCC[C@H](N)C(=O)O; Orn = NCCC[C@H](N)C(=O)O; Abu = CC[C@H](N)C(=O)O; Ava = NCCCCC(=O)O; GABA = NCCCC(=O)O
# Legend:
# GH release = experiment: In vivo GH release after subcutaneous administration; details: rat, s.c.
# Protocol: Blood samples are taken from the jugular vein; 5, 15 and 30 minutes or only 15 and 30 minutes after the injection. The blood samples are centrifuged, plasma is removed and the GH level is measured by ELISA. The results are summarized in terms of potency in Table 9.
# GHRH receptor = molecular target: T1, GHRH receptor (Homo sapiens, UniProt Q02643); experiment: GHRH receptor binding, 125I-labeled JV-1-42 ligand competition, human pituitary membrane homogenates (Table 7); details: 125I-labeled JV-1-42, human pituitary membranes
# T1 construct: Normal human pituitaries were purchased from the National Hormone and Peptide Program; tissue National Hormone and Peptide Program (A. F. Parlow); host or cells: normal human pituitary, membrane fraction
# T1 sequence (Q02643 23-423): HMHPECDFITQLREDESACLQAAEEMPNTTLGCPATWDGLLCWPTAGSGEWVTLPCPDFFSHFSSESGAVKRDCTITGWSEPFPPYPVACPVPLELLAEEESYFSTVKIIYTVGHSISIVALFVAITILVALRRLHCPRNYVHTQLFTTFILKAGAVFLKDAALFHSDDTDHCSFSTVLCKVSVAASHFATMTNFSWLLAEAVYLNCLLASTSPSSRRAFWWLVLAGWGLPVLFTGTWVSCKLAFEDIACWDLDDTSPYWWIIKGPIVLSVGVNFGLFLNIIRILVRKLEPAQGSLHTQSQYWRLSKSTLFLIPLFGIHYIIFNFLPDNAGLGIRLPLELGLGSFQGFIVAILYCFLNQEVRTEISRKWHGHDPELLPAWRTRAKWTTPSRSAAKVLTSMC
# Protocol: Preparation of human pituitary membrane fraction and receptor binding of GHRH agonists were performed as previously described, by using a sensitive in vitro ligand competition assay based on binding of ^125I-labeled JV-1-42 to human pituitary membrane homogenates. Normal human pituitaries were purchased from the National Hormone and Peptide Program (A. F. Parlow, Los Angeles, County Harbor-UCLA Medical Center, Torrance, Calif.).
Compound,GH response after subcutaneous administration (in words) (GH release),pIC50 (GHRH receptor)
"CCCC[C@H](NC(=O)[C@@H](NC(=O)[C@H](CC(=O)O)NC(=O)[C@H](CCC(N)=O)NC(=O)[C@H](CC(C)C)NC(=O)[C@H](CC(C)C)NC(=O)[C@H](CCCN)NC(=O)[C@H](CCCNC(=N)N)NC(=O)[C@H](C)NC(=O)[C@H](CO)NC(=O)[C@H](CC(C)C)NC(=O)[C@H](CCC(N)=O)NC(=O)[C@H](CC)NC(=O)[C@H](CC(C)C)NC(=O)[C@@H](NC(=O)[C@H](CCCN)NC(=O)[C@H](CCCNC(=N)N)NC(=O)[C@H](Cc1ccc(O)cc1)NC(=O)[C@H](CO)NC(=O)[C@H](CCC(N)=O)NC(=O)[C@@H](NC(=O)[C@H](Cc1ccccc1)NC(=O)[C@@H](NC(=O)[C@H](C)NC(=O)[C@H](CC(=O)O)NC(=O)[C@@H](C)NC(=O)CCc1ccc(O)cc1)[C@@H](C)CC)[C@@H](C)O)C(C)C)[C@@H](C)CC)C(=O)N[C@@H](CC(=O)O)C(=O)NCCCCNC(=N)N [Peptide P-20350, [Dat^1, D-Ala^2, Gln^8, Orn^12, Abu^15, Orn^21, Nle^27, Asp^28, Agm^29]hGH-RH(1-29)] (Desaminotyrosyl-[dA]DAIFTQSYR[Orn]VL[Abu]QLSAR[Orn]LLQDI[Nle]D-Agmatine)",unusually high responses; also recorded: especially greater growth hormone levels than hGH-RH or JI-38,
"CCCC[C@H](NC(=O)[C@@H](NC(=O)[C@H](CC(=O)O)NC(=O)[C@H](CCC(N)=O)NC(=O)[C@H](CC(C)C)NC(=O)[C@H](CC(C)C)NC(=O)[C@H](CCCN)NC(=O)[C@H](CCCNC(=N)N)NC(=O)[C@H](C)NC(=O)[C@H](CO)NC(=O)[C@H](CC(C)C)NC(=O)[C@H](CCC(N)=O)NC(=O)[C@H](CC)NC(=O)[C@H](CC(C)C)NC(=O)[C@@H](NC(=O)[C@H](CCCN)NC(=O)[C@H](CCCNC(=N)N)NC(=O)[C@H](Cc1ccc(O)cc1)NC(=O)[C@H](CO)NC(=O)[C@H](CCC(N)=O)NC(=O)[C@@H](NC(=O)[C@H](Cc1ccccc1)NC(=O)[C@@H](NC(=O)[C@H](C)NC(=O)[C@H](CC(=O)O)NC(=O)[C@@H](C)NC(=O)[C@H](Cc1ccc(O)cc1)NC)[C@@H](C)CC)[C@@H](C)O)C(C)C)[C@@H](C)CC)C(=O)N[C@@H](CC(=O)O)C(=O)N[C@@H](CCCNC(=N)N)C(=O)NCCCCC(N)=O [Peptide P-22326, [N—Me-Tyr^1, D-Ala^2, Gln^8, Orn^12, Abu^15, Orn^21, Nle^27, Asp^28, Apa^30]hGH-RH(1-30)NH2] (H-[NMeY][dA]DAIFTQSYR[Orn]VL[Abu]QLSAR[Orn]LLQDI[Nle]DR[Ava]-NH2)",unusually high responses; also recorded: especially greater growth hormone levels than hGH-RH or JI-38,9.15
"CCCC[C@H](NC(=O)[C@@H](NC(=O)[C@H](CC(=O)O)NC(=O)[C@H](CCC(N)=O)NC(=O)[C@H](CC(C)C)NC(=O)[C@H](CC(C)C)NC(=O)[C@H](CCCN)NC(=O)[C@H](CCCNC(=N)N)NC(=O)[C@H](C)NC(=O)[C@H](CO)NC(=O)[C@H](CC(C)C)NC(=O)[C@H](CCC(N)=O)NC(=O)[C@H](CC)NC(=O)[C@H](CC(C)C)NC(=O)[C@@H](NC(=O)[C@H](CCCN)NC(=O)[C@H](CCCNC(=N)N)NC(=O)[C@H](Cc1ccc(O)cc1)NC(=O)[C@H](CO)NC(=O)[C@H](CCC(N)=O)NC(=O)[C@@H](NC(=O)[C@H](Cc1ccccc1)NC(=O)[C@@H](NC(=O)[C@H](C)NC(=O)[C@H](CC(=O)O)NC(=O)[C@@H](C)NC(=O)CCc1ccc(O)cc1)[C@@H](C)CC)[C@@H](C)O)C(C)C)[C@@H](C)CC)C(=O)N[C@@H](CC(=O)O)C(=O)N[C@H](CCCNC(=N)N)C(=O)NC [Peptide P-27401, [Dat^1, D-Ala^2, Gln^8, Orn^12, Abu^15, Orn^21, Nle^27, Asp^28, D-Arg^29]hGH-RH(1-29)NH—CH3] (Desaminotyrosyl-[dA]DAIFTQSYR[Orn]VL[Abu]QLSAR[Orn]LLQDI[Nle]D[dR]-NHMe)",,8.56
"CCCC[C@H](NC(=O)[C@@H](NC(=O)[C@H](CC(=O)O)NC(=O)[C@H](CCC(N)=O)NC(=O)[C@H](CC(C)C)NC(=O)[C@H](CC(C)C)NC(=O)[C@H](CCCN)NC(=O)[C@H](CCCNC(=N)N)NC(=O)[C@H](C)NC(=O)[C@H](CO)NC(=O)[C@H](CC(C)C)NC(=O)[C@H](CCC(N)=O)NC(=O)[C@H](CC)NC(=O)[C@H](CC(C)C)NC(=O)[C@@H](NC(=O)[C@H](CCCN)NC(=O)[C@H](CCCNC(=N)N)NC(=O)[C@H](Cc1ccc(O)cc1)NC(=O)[C@H](CO)NC(=O)[C@H](CC(N)=O)NC(=O)[C@@H](NC(=O)[C@H](Cc1c(F)c(F)c(F)c(F)c1F)NC(=O)[C@@H](NC(=O)[C@H](C)NC(=O)[C@H](CC(=O)O)NC(=O)[C@@H](C)NC(=O)[C@H](Cc1ccc(O)cc1)NC)[C@@H](C)CC)[C@@H](C)O)C(C)C)[C@@H](C)CC)C(=O)N[C@@H](CO)C(=O)N[C@@H](CCCNC(=N)N)C(=O)NCCCC(=O)NC [Peptide P-27414, [N—Me-Tyr^1, D-Ala^2, Fpa5^6, Orn^12, Abu^15, Orn^21, Nle^27, Gab^30]hGH-RH(1-30)NH—CH3] (H-[NMeY][dA]DAI[Phe(F5)]TNSYR[Orn]VL[Abu]QLSAR[Orn]LLQDI[Nle]SR[GABA]-NHMe)",,8.81
"CCCC[C@H](NC(=O)[C@@H](NC(=O)[C@H](CC(=O)O)NC(=O)[C@H](CCC(N)=O)NC(=O)[C@H](CC(C)C)NC(=O)[C@H](CC(C)C)NC(=O)[C@H](CCCN)NC(=O)[C@H](CCCNC(=N)N)NC(=O)[C@H](C)NC(=O)[C@H](CO)NC(=O)[C@H](CC(C)C)NC(=O)[C@H](CCC(N)=O)NC(=O)[C@H](CC)NC(=O)[C@H](CC(C)C)NC(=O)[C@@H](NC(=O)[C@H](CCCN)NC(=O)[C@H](CCCNC(=N)N)NC(=O)[C@H](Cc1ccc(O)cc1)NC(=O)[C@H](CO)NC(=O)[C@H](CCC(N)=O)NC(=O)[C@@H](NC(=O)[C@H](Cc1ccccc1)NC(=O)[C@@H](NC(=O)[C@H](C)NC(=O)[C@H](CC(=O)O)NC(=O)[C@@H](C)NC(=O)[C@H](Cc1ccc(O)cc1)NC)[C@@H](C)CC)[C@@H](C)O)C(C)C)[C@@H](C)CC)C(=O)N[C@@H](CC(=O)O)C(=O)N[C@@H](CCCNC(=N)N)C(=O)NCC [Peptide P-28420, [N—Me-Tyr^1, D-Ala^2, Gln^8, Orn^12, Abu^15, Orn^21, Nle^27, Asp^28]hGH-RH(1-29)NH—CH2—CH3] (H-[NMeY][dA]DAIFTQSYR[Orn]VL[Abu]QLSAR[Orn]LLQDI[Nle]DR-NHEt)",,9.28
"CCCC[C@H](NC(=O)[C@@H](NC(=O)[C@H](CC(=O)O)NC(=O)[C@H](CCC(N)=O)NC(=O)[C@H](CC(C)C)NC(=O)[C@H](CC(C)C)NC(=O)[C@H](CCCN)NC(=O)[C@H](CCCNC(=N)N)NC(=O)[C@H](C)NC(=O)[C@H](CO)NC(=O)[C@H](CC(C)C)NC(=O)[C@H](CCC(N)=O)NC(=O)[C@H](CC)NC(=O)[C@H](CC(C)C)NC(=O)[C@@H](NC(=O)[C@H](CCCN)NC(=O)[C@H](CCCNC(=N)N)NC(=O)[C@H](Cc1ccc(O)cc1)NC(=O)[C@H](CO)NC(=O)[C@H](CC(N)=O)NC(=O)[C@@H](NC(=O)[C@H](Cc1ccccc1)NC(=O)[C@@H](NC(=O)[C@H](C)NC(=O)[C@H](CC(=O)O)NC(=O)[C@@H](C)NC(=O)[C@H](Cc1ccc(O)cc1)NC)[C@@H](C)CC)[C@@H](C)O)C(C)C)[C@@H](C)CC)C(=O)N[C@@H](CC(=O)O)C(=O)N[C@@H](CCCNC(=N)N)C(=O)NCC [Peptide P-28421, [N—Me-Tyr^1, D-Ala^2, Orn^12, Abu^15, Orn^21, Nle^27, Asp^28]hGH-RH(1-29)NH—CH2—CH3] (H-[NMeY][dA]DAIFTNSYR[Orn]VL[Abu]QLSAR[Orn]LLQDI[Nle]DR-NHEt)",,8.83
"CCCC[C@H](NC(=O)[C@@H](NC(=O)[C@H](CC(=O)O)NC(=O)[C@H](CCC(N)=O)NC(=O)[C@H](CC(C)C)NC(=O)[C@H](CC(C)C)NC(=O)[C@H](CCCN)NC(=O)[C@H](CCCNC(=N)N)NC(=O)[C@H](C)NC(=O)[C@H](CO)NC(=O)[C@H](CC(C)C)NC(=O)[C@H](CCC(N)=O)NC(=O)[C@H](CC)NC(=O)[C@H](CC(C)C)NC(=O)[C@@H](NC(=O)[C@H](CCCN)NC(=O)[C@H](CCCNC(=N)N)NC(=O)[C@H](Cc1ccc(O)cc1)NC(=O)[C@H](CO)NC(=O)[C@H](CC(N)=O)NC(=O)[C@@H](NC(=O)[C@H](Cc1ccccc1)NC(=O)[C@@H](NC(=O)[C@H](C)NC(=O)[C@H](CC(=O)O)NC(=O)[C@@H](C)NC(=O)CCc1ccc(O)cc1)[C@@H](C)CC)[C@@H](C)O)C(C)C)[C@@H](C)CC)C(=O)N[C@@H](CO)C(=O)N[C@@H](CCCNC(=N)N)C(=O)N[C@@H](CCC(N)=O)C(=O)NCCCC(N)=O [Peptide P-29702, [Dat^1, D-Ala^2, Orn^12, Abu^15, Orn^21, Nle^27, Gln-Gab^30]hGH-RH(1-30)NH2] (Desaminotyrosyl-[dA]DAIFTNSYR[Orn]VL[Abu]QLSAR[Orn]LLQDI[Nle]SRQ[GABA]-NH2)",,9.07
